# Test results from patent US20090028795A1, “NOD1 as an Anti-Tumor Agent” (priority 2005, published 2009).
# Non-standard residues stand in square brackets, D forms with d. No end group written: not given here. DAP = diaminopimelic acid
# Key:
# Type in all cases: cell-based, human
# [1] = tested on: poly(ADP-ribose)polymerase (PARP) and capases 6, 7, 8 and 9; test: Western blot of PARP and caspase cleavage in MCF-7 cells; settings: CHX 0.5 ug/ml, 24 h
# Method: Cleavage of PARP and various caspases was detected by Western blot analysis of cell MCF-7 Blasto, MCF-7 C20 and MCF-7 Nod1 after stimulation with γTriDAP, αTriDAP or medium (control) in the presence or absence of CHX (0.5 ug/ml) for 24 h. Cells were harvested, subjected to western blotting and PARP, caspases, p20, p41/43 and p35 were detected with antibodies reactive thereof.
# Western blot analysis and immunoprecipitation. Cells were washed extensively and lysed using lysis buffer containing 50 mM Hepes, 100 mM NaCl, 2 mM EDTA, 10% glycerol, 1% Nonidet P-40, 14 μM pepstatin A, 100 uM leupeptin, 3 mM benzamidine, 1 mM PMSF, 1 mM sodium pyrophosphate, 10 mM sodium orthovanadate, 100 U/ml aprotinin, and 100 mM sodium fluoride. After incubation for 30 min on ice, cell lysates were centrifuged (14000 rpm, 10 min, 4° C.) and the supernatants were recovered. For immunoprecipitation, cell lysates were mixed with 5 μg of antibody for 3 hour at 4° C. under constant agitation. Immune complexes were allowed to bind to 20 μl protein A-Sepharose beads overnight, beads were washed three times with lysis buffer. Immunoprecipitates were separated on SDS-PAGE and transferred to PVDF membranes.
# 293 = test: IL-8 production, 293 cells stably expressing Nod1; settings: 293, Nod1 stably expressed; treatment as labelled
# MCF-7 cells = test: Propidium iodide exclusion cell death assay, wild-type (parental/Blasto) MCF-7 cells; settings: for cell death / apoptosis: wild type cells, agent alone
# Method: (§1) Cell viability assays. Propidium iodide exclusion assay: Cells were stimulated as indicated for 2 days. Subsequently, cells were harvested, washed twice in FACS buffer (PBS containing 1% FCS and 0.1% NaN3) and resuspended in propidium iodide (PI)-containing FACS buffer (4 ug/ml). The extent of cell death was analyzed with a FACSCalibur flow cytometer (Becton Dickinson, Mountain View, Calif.). DAPI staining: MCF-7 cells were plated in chamber slides, and stimulated for 2 days. Cells were washed with PBS and apoptotic nuclei were stained with 1 μg/ml DAPI (Sigma Chemical Co., St. Louis, Mo.). Cells were fixed in 4% paraformaldehyde and examined by fluorescence microscopy.
# To further investigate the role of Nod1 in apoptosis, a variety of cell types were incubated with the Nod1 ligand, […] (γTriDAP), which specifically activates Nod1. The cell types tested included the parental MCF-7 cell line, the Nod1-deficient MCF-7C20 clone, and a cell line engineered to contain an additional human Nod1 allele (MCF-7Nod1) so that Nod1 was over-expressed. To determine whether the resistance of C20 cells to γTriDAP-induced apoptosis resulted from the absence of Nod1, human Nod1 was stably expressed in MCF-7 C20 cells to produce Nod1-sufficient C20 cells (C20/Nod1). As another control, the parental MCF-7 cell line was transfected with an empty retroviral vector to generate MCF-7 Blasto cells. Cells were treated with γTriDAP in the presence or absence of cycloheximide (CHX) and cell death was then determined by propidium iodide staining and flow cytometry.
# MCF-7 C20/Nod1 cells = test: Propidium iodide exclusion apoptosis assay, estrogen/tamoxifen studies; settings: γTriDAP-induced, C20/Nod1 cells
# Source text: FIG. 12A-C illustrates that estrogen increases γTriDAP-induced apoptosis and tamoxifen inhibits γTriDAP-induced apoptosis in various MCF-7 tumor cell lines. FIG. 12A graphically illustrates the percent apoptosis in MCF-7 Blasto, MCF-7 C20 and MCF-7 C20/Nod1 cells cultured in increasing amounts or estrogen and either cycloheximide (CHX) or CHX plus γTriDAP (γTri). FIG. 12B graphically illustrates the percent apoptosis in MCF-7 Blasto, MCF-7 C20 and MCF-7 C20/Nod1 cells cultured in increasing amounts of tamoxifen and either cycloheximide (CHX) or CHX plus γTriDAP (γTri). For the estrogen studies, MCF-7 cells were cultured in charcoal-treated medium and stimulated with γTriDAP/CHX in the presence of increasing concentrations of estrogen (E2) and cell viability was measured by propidium iodide (PI) exclusion. For the tamoxifen studies, cells were treated with tamoxifen prior to addition of γTriDAP/CHX and cell viability measured by PI exclusion. […] Total protein extracts from MCF-7 Blasto, MCF-7 C20 and MCF-7 C20/Nod1 cells and from cells isolated from tumors were analyzed by immunoblotting using antibody against estrogen receptor (ERα), and ERK2 as loading control.
# as §1
# To determine whether the presence of estrogens modulates Nod1-induced apoptotic pathway, cells were cultured in medium containing charcoal-treated serum.
substance,measurement,setting,value
D-Ala-L-Glu-Diaminopimelic acid ([dA]-Glu-[DAP]; also: Glu joined to DAP through its gamma carboxyl (γTriDAP)),"proteolytic cleavage of PARP and capases 6, 7, 8 and 9",[1],resulted in proteolytic cleavage
same,IL−8 Production,293,do release IL-8
same,cell death / apoptosis,MCF-7 cells,No cell death
same,cell death / apoptosis,MCF-7 cells; listed as 7-TriDAP,did not induce apoptosis
same,cell death,"MCF-7 cells; wild-type MCF-7, γTriDAP 50 ug/ml in the presence of cycloheximide 3 ug/ml, 48 h",about 25%
same,apoptosis,MCF-7 C20/Nod1 cells; with steroids,80%
same,apoptosis,MCF-7 C20/Nod1 cells; without steroids (charcoal-treated serum),10%
